In US20070037837A1, “Quinazoline derivatives” (priority 2003, published 2007) one finds IC50 data, which are given here for four compounds.

The target of one assay is T1, erbB2 (Homo sapiens, UniProt P04626).
T1 construct: to give a cell line that overexpresses full length wild type erbB2 protein; expressed in transfected cells; host or cells: MCF7 (breast carcinoma) derived 'Clone 24' cells
Kind of assay: Clone 24 phospho-erbB2 cell assay, Test (e). In kind it is cell-based. The following applies: MCF7 derived Clone 24 cells, 4 hrs; read-out: IC50 Test (e): Inhibition of erbB2 tyrosine kinase protein phosphorylation. The method, then:
This immunofluorescence end point assay measures the ability of a test compound to inhibit the phosphorylation of erbB2 in a MCF7 (breast carcinoma) derived cell line which was generated by transfecting MCF7 cells with the full length erbB2 gene using standard methods to give a cell line that overexpresses full length wild type erbB2 protein (hereinafter ‘Clone 24’ cells).
Clone 24 cells were cultured in Growth Medium (phenol red free Dulbecco's modified Eagle's medium (DMEM) containing 10% foetal bovine serum, 2 mM glutamine and 1.2 mg/ml G418) in a 7.5% CO2 air incubator at 37° C. Cells were harvested from T75 stock flasks by washing once in PBS (phosphate buffered saline, pH 7.4, Gibco No. 10010-015) and harvested using 2 mls of Trypsin (1.25 mg/ml)/ethylaminediaminetetraacetic acid (EDTA) (0.8 mg/ml) solution. The cells were resuspended in Growth Medium. Cell density was measured using a haemocytometer and viability was calculated using Trypan Blue solution before being further diluted in Growth Medium and seeded at a density of 1×10^4 cells per well (in 100 ul) into clear bottomed 96 well plates (Packard, No. 6005182).
3 days later, Growth Medium was removed from the wells and replaced with 100 ul Assay Medium (phenol red free DMEM, 2 mM glutamine, 1.2 mg/ml G418) either with or without erbB inhibitor compound. Plates were returned to the incubator for 4 hrs and then 20 μl of 20% formaldehyde solution in PBS was added to each well and the plate was left at room temperature for 30 minutes. This fixative solution was removed with a multichannel pipette, 100 μl of PBS was added to each well and then removed with a multichannel pipette and then 50 μl PBS was added to each well. Plates were then sealed and stored for up to 2 weeks at 4° C.
Immunostaining was performed at room temperature. Wells were washed once with 200 μl PBS/Tween 20 (made by adding 1 sachet of PBS/Tween dry powder (Sigma, No. P3563) to 1 L of double distilled H2O) using a plate washer then 200 μl Blocking Solution (5% Marvel dried skimmed milk (Nestle) in PBS/Tween 20) was added and incubated for 10 minutes. Blocking Solution was removed using a plate washer and 200 μl of 0.5% Triton X-100/PBS was added to permeabalise the cells. After 10 minutes, the plate was washed with 200 μl PBS/Tween 20 and then 200 μl Blocking Solution was added once again and incubated for 15 minutes. […]
The Fluorescence signal is each well was measured using an Acumen Explorer Instrument (Acumen Bioscience Ltd.), a plate reader that can be used to rapidly quantitate features of images generated by laser-scanning. […]

The subject of the next assay is KB cells. Nature of the assay: EGFR driven KB cell proliferation assay, Test (b). In kind it is cell-based. As to conditions: Homo sapiens, 96 h, EGF 1 ng/ml, 4 days, MTT. As to the method: This assay measures the ability of a test compound to inhibit the proliferation of KB cells (human naso-pharangeal carcinoma obtained from the American Type Culture Collection (ATCC).
KB cells (human naso-pharangeal carcinoma obtained from the ATCC were cultured in Dulbecco's modified Eagle's medium (DMEM) containing 10% foetal calf serum, 2 mM glutamine and non-essential amino acids at 37° C. in a 7.5% CO2 air incubator. Cells were harvested from the stock flasks using Trypsin/ethylaminediaminetetraacetic acid (EDTA). Cell density was measured using a haemocytometer and viability was calculated using trypan blue solution before being seeded at a density of 1.25×10^3 cells per well of a 96 well plate in DMEM containing 2.5% charcoal stripped serum, 1 mM glutamine and non-essential amino acids at 37° C. in 7.5% CO2 and allowed to settle for 4 hours.
Following adhesion to the plate, the cells are treated with or without EGF (final concentration of 1 ng/ml) and with or without compound at a range of concentrations in dimethylsulfoxide (DMSO) (0.1% final) before incubation for 4 days. Following the incubation period, cell numbers were determined by addition of 50 μl of 3-(4,5-Dimethylthiazol-2-yl)-2,5-diphenyltetrazolium bromide (MTT) (stock 5 mg/ml) for 2 hours. MTT solution was then tipped off, the plate gently tapped dry and the cells dissolved upon the addition of 100 μl of DMSO.
Absorbance of the solubilised cells was read at 540 nm using a Molecular Devices ThermoMax microplate reader. Inhibition of proliferation was expressed as an IC50 value. This was determined by calculation of the concentration of compound that was required to give 50% inhibition of proliferation. The range of proliferation was calculated from the positive (vehicle plus EGF) and negative (vehicle minus EGF) control values.

A further assay deals with T2, EGFR tyrosine kinase (Homo sapiens, UniProt P00533).
T2 construct: Recombinant intracellular fragments of EGFR, erbB2 and erbB4; made in house; host or cells: baculovirus/Sf21 insect cells (cleared lysate used)
Kind of assay: Protein tyrosine kinase phosphorylation assay, Test (a), EGFR. In kind it is biochemical. The following applies: recombinant intracellular fragment, ATP at Km; read-out: IC50 Test (a): Inhibition of EGFR tyrosine kinase protein phosphorylation. As to the method: (§1) This test measures the ability of a test compound to inhibit the phosphorylation of a tyrosine containing polypeptide substrate by EGFR and erbB2 tyrosine kinase enzyme.
(§2) Recombinant intracellular fragments of EGFR, erbB2 and erbB4 (accession numbers X00588, X03363 and L07868 respectively) were cloned and expressed in the baculovirus/Sf21 system. Lysates were prepared from these cells by treatment with ice-cold lysis buffer (20 mM N-2-hydroxyethylpiperizine-N′-2-ethanesulfonic acid (HEPES) pH 7.5, 150 mM NaCl, 10% glycerol, 1% Triton X-100, 1.5 mM MgCl2, 1 mM ethylene glycol-bis(β-aminoethyl ether) N′,N′,N′,N′-tetraacetic acid (EGTA), plus protease inhibitors and then cleared by centrifugation.
Constitutive kinase activity of the recombinant protein was determined by its ability to phosphorylate a synthetic peptide (made up of a random co-polymer of Glutamic Acid, Alanine and Tyrosine in the ratio of 6:3:1). Specifically, Maxisorb™ 96-well immunoplates were coated with synthetic peptide (0.2 μg of peptide in a 100 μl phosphate buffered saline (PBS) solution and incubated at 4° C. overnight). Plates were washed in PBS-T (phosphate buffered saline with 0.5% Tween 20) then in 50 mM HEPES pH 7.4 at room temperature to remove any excess unbound synthetic peptide. […]
The immobilised phospho-peptide product of the reaction was detected by immunological methods. […] After further washing, HRP activity in each well of the plate was measured colorimetrically using 22′-Azino-di-[3-ethylbenzthiazoline sulfonate (6)] diammonium salt crystals (ABTS™ from Roche) as a substrate.
(§3) Quantification of colour development and thus enzyme activity was achieved by the measurement of absorbance at 405 nm on a Molecular Devices ThermoMax microplate reader. Kinase inhibition for a given compound was expressed as an IC50 value. […] The range of phosphorylation was calculated from the positive (vehicle plus ATP) and negative (vehicle minus ATP) control values.

Another assay concerns the target T3, erbB2 tyrosine kinase (Homo sapiens, UniProt P04626).
T3 construct: Recombinant intracellular fragments of EGFR, erbB2 and erbB4; made in house; host or cells: baculovirus/Sf21 insect cells (cleared lysate used)
Nature of the assay: Protein tyrosine kinase phosphorylation assay, Test (a), erbB2. In kind it is biochemical. As to conditions: recombinant intracellular fragment, ATP at Km; read-out: IC50 Test (a): Inhibition of erbB2 tyrosine kinase protein phosphorylation. As to the method: as §1, §2
Constitutive kinase activity of the recombinant protein was determined by its ability to phosphorylate a synthetic peptide (made up of a random co-polymer of Glutamic Acid, Alanine and Tyrosine in the ratio of 6:3:1). Specifically, Maxisorb™ 96-well immunoplates were coated with synthetic peptide (0.2 μg of peptide in a 100 μl phosphate buffered saline (PBS) solution and incubated at 4° C. overnight). Plates were washed in PBS-T (phosphate buffered saline with 0.5% Tween 20) then in 50 mM HEPES pH 7.4 at room temperature to remove any excess unbound synthetic peptide. EGFR, ErbB2 or ErbB4 tyrosine kinase activity was assessed by incubation in peptide coated plates for 20 minutes at 22° C. in 100 mM HEPES pH 7.4, adenosine trisphosphate (ATP) at Km concentration for the respective enzyme, 10 mM MnCl2, 0.1 mM Na3VO4, 0.2 mM DL-dithiothreitol (DTT), 0.1% Triton X-100 with test compound in DMSO (final concentration of 2.5%). Reactions were terminated by the removal of the liquid components of the assay followed by washing of the plates with PBS-T.
The immobilised phospho-peptide product of the reaction was detected by immunological methods. Firstly, plates were incubated for 90 minutes at room temperature with anti-phosphotyrosine primary antibodies that were raised in the mouse (4G10 from Upstate Biotechnology). Following extensive washing, plates were treated with Horseradish Peroxidase (HRP) conjugated sheep anti-mouse secondary antibody (NXA931 from Amersham) for 60 minutes at room temperature. After further washing, HRP activity in each well of the plate was measured colorimetrically using 22′-Azino-di-[3-ethylbenzthiazoline sulfonate (6)] diammonium salt crystals (ABTS™ from Roche) as a substrate.
as §3

T2 sequence (P00533 669-1210 limits assumed): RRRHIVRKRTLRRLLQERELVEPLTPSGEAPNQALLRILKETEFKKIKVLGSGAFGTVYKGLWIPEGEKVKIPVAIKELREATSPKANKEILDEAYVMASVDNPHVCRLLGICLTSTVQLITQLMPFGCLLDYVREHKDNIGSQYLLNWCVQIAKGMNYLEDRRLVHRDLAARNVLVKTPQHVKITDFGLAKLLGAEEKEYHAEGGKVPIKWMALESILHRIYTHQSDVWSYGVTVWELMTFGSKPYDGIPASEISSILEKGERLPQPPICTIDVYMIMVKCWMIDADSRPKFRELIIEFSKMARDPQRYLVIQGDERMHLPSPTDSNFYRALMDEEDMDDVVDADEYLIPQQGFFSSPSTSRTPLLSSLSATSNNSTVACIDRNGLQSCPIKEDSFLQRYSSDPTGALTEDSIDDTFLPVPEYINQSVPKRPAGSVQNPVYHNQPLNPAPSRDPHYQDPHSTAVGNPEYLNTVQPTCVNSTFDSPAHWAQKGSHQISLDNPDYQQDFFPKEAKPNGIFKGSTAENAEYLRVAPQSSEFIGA
T3 sequence (P04626 676-1255 limits assumed): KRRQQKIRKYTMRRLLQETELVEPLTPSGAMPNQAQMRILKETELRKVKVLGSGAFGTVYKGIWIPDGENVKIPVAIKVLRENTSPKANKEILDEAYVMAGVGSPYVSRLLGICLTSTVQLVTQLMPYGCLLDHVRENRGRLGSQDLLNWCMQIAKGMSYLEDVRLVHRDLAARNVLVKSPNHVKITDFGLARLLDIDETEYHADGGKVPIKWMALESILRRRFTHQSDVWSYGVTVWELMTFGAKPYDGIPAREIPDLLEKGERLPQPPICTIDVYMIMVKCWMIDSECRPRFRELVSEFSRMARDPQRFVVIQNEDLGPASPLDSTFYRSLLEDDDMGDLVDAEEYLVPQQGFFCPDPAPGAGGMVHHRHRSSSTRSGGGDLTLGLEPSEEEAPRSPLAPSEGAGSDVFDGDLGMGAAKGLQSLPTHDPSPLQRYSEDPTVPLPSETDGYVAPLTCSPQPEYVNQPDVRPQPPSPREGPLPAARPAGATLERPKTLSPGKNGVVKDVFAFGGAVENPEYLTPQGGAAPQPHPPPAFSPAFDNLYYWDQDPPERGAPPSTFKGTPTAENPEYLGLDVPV
T1 sequence (P04626 23-1255): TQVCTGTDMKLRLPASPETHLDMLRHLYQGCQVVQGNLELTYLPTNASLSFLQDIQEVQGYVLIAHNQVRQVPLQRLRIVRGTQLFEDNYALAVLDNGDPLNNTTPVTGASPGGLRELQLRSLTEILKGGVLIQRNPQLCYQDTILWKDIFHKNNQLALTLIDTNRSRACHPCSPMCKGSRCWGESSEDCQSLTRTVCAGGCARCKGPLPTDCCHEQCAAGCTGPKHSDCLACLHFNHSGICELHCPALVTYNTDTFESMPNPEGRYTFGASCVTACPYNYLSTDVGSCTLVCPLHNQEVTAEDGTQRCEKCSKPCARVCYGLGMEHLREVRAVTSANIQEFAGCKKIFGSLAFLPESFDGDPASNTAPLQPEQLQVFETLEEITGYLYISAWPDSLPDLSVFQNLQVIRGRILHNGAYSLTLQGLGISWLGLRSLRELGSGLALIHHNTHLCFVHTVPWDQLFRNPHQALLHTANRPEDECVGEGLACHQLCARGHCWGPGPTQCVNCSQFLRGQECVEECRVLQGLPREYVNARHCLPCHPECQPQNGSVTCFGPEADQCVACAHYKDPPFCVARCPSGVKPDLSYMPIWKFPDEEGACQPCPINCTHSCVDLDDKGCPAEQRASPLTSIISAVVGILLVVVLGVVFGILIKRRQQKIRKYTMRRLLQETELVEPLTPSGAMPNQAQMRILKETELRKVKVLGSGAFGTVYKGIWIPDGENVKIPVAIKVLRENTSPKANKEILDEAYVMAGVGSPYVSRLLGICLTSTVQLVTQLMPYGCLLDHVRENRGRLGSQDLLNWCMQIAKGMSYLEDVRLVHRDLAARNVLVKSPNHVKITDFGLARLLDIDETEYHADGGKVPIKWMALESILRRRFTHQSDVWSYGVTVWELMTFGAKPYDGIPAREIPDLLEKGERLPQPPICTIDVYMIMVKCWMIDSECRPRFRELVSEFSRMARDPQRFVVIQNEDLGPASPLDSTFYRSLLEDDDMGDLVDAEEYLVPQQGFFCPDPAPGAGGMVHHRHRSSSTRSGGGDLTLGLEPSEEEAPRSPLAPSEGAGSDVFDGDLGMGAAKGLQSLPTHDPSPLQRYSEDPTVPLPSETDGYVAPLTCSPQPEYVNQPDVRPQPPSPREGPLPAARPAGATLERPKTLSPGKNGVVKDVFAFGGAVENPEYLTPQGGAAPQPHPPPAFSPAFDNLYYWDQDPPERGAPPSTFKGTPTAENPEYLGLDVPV

With `COC(=O)N1CCC(Oc2cc3c(Nc4cccc(Cl)c4F)ncnc3cc2OC)CC1` [Example 1, 4-(3-Chloro-2-fluoroanilino)-7-methoxy-6-{[1-(methoxycarbonyl)piperidin-4-yl]oxy}quinazoline], the IC50 at erbB2 is 9 nM; in the assay on KB cells, 35 nM; at EGFR tyrosine kinase it was 1 nM; at erbB2 tyrosine kinase, 38 nM.

Consider `COc1cc2ncnc(Nc3cccc(Cl)c3F)c2cc1OC1CCN(C(=O)OCCN2CCCC2)CC1` [Example 2, 4-(3-Chloro-2-fluoroanilino)-7-methoxy-6-{[1-{2-(pyrrolidin-1-yl)ethoxycarbonyl}piperidin-4-yl]oxy}quinazoline], for which the IC50 at erbB2 came out at 36 nM; in the assay on KB cells, 9 nM; at EGFR tyrosine kinase, 4 nM; on erbB2 tyrosine kinase it was 10 nM.

Consider `COc1cc2ncnc(Nc3ccc(F)c(Cl)c3F)c2cc1OC1CCN(C(=O)OCCN2CCCC2)CC1` [Example 4, 4-(3-Chloro-2,4-difluoroanilino)-7-methoxy-6-{[1-{2-(pyrrolidin-1-yl)ethoxycarbonyl}piperidin-4-yl]oxy}quinazoline], for which the IC50 on erbB2 was 29 nM; in the assay on KB cells it was 15 nM; on EGFR tyrosine kinase it was 2 nM; on erbB2 tyrosine kinase, 2 nM.

Regarding `COc1cc2ncnc(Nc3cccc(Cl)c3F)c2cc1OC1CCN(C(=O)OCCN2CCCCC2)CC1` [Example 6, 4-(3-Chloro-2-fluoroanilino)-7-methoxy-6-{[1-{2-(piperidin-1-yl)ethoxycarbonyl}piperidin-4-yl]oxy}quinazoline], the IC50 came out at 41 nM on erbB2, 10 nM with KB cells and 2 nM on erbB2 tyrosine kinase.

The IC50 is the concentration needed to halve the response being measured.
